Source: ChEMBL document CHEMBL3881530, “Compounds and methods for inhibiting NHE-mediated antiport in the treatment of disorders associated with fluid retention or salt overload and gastrointestinal tract disorders” (2013)
pIC50: −log10 of the molar value. Values belong to the molecule of their own block, whether it stands above or below them.

Tests used:
[1] = molecular target: T1, Sodium/hydrogen exchanger 3 (Homo sapiens, UniProt P48764); experiment: Inhibition of NHE-3 (unknown origin)
T1 sequence (P48764 whole entry): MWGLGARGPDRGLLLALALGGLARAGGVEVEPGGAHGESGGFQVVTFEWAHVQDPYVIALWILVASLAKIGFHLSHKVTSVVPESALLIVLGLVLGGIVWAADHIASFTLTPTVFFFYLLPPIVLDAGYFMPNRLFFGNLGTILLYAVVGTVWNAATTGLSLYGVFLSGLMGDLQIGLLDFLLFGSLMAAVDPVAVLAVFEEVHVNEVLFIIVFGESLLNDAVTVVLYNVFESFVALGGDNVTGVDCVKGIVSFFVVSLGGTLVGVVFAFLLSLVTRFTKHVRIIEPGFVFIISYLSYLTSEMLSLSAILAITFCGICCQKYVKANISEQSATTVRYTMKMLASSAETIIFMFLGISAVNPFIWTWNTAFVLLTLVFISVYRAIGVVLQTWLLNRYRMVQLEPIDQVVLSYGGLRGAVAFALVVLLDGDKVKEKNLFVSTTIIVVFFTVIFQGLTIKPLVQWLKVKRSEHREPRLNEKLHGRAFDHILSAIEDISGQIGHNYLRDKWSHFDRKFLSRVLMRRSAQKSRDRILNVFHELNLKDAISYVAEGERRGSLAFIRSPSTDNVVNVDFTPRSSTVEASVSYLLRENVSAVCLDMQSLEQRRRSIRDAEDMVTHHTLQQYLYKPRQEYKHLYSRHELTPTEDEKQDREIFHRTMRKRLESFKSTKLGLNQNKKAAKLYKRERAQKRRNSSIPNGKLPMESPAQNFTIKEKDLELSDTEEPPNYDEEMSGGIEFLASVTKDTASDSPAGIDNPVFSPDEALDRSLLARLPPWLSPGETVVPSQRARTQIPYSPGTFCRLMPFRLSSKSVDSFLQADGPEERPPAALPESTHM

[2] = molecular target: T2, Sodium/hydrogen exchanger 2 (Oryctolagus cuniculus, UniProt P50482); experiment: Inhibition of rabbit NHE-2
T2 sequence (P50482 whole entry): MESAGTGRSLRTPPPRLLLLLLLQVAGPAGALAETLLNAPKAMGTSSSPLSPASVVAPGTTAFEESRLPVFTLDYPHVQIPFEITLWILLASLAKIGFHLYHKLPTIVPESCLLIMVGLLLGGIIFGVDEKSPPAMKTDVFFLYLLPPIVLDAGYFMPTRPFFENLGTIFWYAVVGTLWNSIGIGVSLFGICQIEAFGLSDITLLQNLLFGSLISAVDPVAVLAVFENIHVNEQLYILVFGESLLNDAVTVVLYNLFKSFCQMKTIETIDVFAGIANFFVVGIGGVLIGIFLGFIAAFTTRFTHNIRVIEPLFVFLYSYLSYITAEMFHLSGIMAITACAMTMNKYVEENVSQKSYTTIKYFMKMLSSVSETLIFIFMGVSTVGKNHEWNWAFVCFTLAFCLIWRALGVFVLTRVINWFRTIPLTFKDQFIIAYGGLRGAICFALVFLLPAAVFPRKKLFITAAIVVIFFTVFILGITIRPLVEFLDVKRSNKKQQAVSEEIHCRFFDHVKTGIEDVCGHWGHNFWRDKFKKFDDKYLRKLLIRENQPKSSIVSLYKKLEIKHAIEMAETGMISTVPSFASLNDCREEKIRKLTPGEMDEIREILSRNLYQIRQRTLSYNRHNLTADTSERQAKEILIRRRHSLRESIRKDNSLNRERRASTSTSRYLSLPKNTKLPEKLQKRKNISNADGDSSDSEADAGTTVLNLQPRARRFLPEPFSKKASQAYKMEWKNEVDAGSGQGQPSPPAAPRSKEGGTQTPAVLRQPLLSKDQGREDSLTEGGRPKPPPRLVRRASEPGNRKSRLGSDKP

[3] = molecular target: Sodium/hydrogen exchanger 1 (Homo sapiens, UniProt P19634); experiment: Inhibition of NHE-1 (unknown origin)
[4] = Cmax in Sprague-Dawley rat at 1.5 mg/kg administered via oral gavage measured up to 4 hrs by LC/MS/MS analysis; assay type: ADME, organism-based; set-up: dose 1.5 mg/kg, route oral; settings: in vivo
[5] = AUC in Sprague-Dawley rat at 1.5 mg/kg administered via oral gavage measured up to 4 hrs by LC/MS/MS analysis; assay type: ADME, organism-based; set-up: time < 4 hr, dose 1.5 mg/kg, route oral; settings: in vivo
[6] = molecular target: Sodium/hydrogen exchanger 3 (Rattus norvegicus, UniProt P26433); experiment: Inhibition of rat NHE-3
[7] = Cmax in Sprague-Dawley rat at 27 mg/kg administered via oral gavage measured up to 4 hrs by LC/MS/MS analysis; assay type: ADME, organism-based; set-up: dose 27 mg/kg, route oral; settings: in vivo
[8] = AUC in Sprague-Dawley rat at 27 mg/kg administered via oral gavage measured up to 4 hrs by LC/MS/MS analysis; assay type: ADME, organism-based; set-up: time < 4 hr, dose 27 mg/kg, route oral; settings: in vivo
[9] = AUC in Sprague-Dawley rat at 21 mg/kg administered via oral gavage measured up to 4 hrs by LC/MS/MS analysis; assay type: ADME, organism-based; set-up: dose 21 mg/kg, time < 4 hr, route oral; settings: in vivo
[10] = Cmax in Sprague-Dawley rat at 21 mg/kg administered via oral gavage measured up to 4 hrs by LC/MS/MS analysis; assay type: ADME, organism-based; set-up: dose 21 mg/kg, route oral; settings: in vivo

Sequence of Sodium/hydrogen exchanger 3 (Rattus norvegicus, UniProt P26433) (P26433 whole entry): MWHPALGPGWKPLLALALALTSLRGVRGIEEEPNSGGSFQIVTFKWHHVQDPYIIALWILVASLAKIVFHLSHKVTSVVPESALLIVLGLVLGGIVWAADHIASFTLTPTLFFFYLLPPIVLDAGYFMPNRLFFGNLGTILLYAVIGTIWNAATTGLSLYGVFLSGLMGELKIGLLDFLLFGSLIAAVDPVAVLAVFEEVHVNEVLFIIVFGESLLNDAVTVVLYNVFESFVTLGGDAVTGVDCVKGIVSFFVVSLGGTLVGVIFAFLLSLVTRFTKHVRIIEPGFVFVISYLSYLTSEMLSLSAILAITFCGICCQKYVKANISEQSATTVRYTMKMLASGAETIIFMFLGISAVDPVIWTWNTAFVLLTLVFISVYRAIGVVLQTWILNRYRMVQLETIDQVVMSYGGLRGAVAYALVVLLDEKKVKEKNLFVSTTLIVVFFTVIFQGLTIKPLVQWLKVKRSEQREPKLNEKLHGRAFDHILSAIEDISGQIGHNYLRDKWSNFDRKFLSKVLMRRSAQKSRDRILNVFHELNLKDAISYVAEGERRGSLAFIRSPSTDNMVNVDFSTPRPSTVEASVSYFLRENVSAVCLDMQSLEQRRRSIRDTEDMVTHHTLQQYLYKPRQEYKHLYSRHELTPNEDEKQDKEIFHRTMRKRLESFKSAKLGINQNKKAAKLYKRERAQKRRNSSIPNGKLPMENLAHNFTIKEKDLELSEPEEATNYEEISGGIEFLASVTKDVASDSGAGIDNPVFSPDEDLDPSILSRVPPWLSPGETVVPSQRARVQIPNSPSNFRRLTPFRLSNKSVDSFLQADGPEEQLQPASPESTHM
Sequence of Sodium/hydrogen exchanger 1 (P19634 whole entry): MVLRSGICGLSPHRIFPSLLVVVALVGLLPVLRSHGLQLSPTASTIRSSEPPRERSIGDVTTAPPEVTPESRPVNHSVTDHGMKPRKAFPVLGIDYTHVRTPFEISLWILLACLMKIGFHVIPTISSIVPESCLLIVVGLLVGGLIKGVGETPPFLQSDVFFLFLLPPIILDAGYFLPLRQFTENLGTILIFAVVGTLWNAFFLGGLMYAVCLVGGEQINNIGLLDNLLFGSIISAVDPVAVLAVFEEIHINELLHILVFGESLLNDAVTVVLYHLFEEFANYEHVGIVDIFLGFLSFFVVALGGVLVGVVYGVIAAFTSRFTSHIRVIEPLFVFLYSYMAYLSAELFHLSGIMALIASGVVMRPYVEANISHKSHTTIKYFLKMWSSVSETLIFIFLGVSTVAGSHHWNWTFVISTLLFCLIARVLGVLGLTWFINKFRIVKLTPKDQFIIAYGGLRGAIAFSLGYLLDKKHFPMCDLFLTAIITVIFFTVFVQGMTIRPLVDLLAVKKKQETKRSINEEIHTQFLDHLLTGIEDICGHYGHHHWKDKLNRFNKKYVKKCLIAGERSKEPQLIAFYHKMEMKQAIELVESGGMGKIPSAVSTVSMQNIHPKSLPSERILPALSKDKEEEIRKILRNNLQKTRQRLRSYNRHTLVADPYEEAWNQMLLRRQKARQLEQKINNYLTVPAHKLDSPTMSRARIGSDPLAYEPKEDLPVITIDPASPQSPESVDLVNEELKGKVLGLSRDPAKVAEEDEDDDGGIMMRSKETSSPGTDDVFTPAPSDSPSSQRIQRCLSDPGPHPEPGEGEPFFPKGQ

SMILES: C/C(=C\c1cc(C)ccc1/C=C(\C)C(=O)NC(=N)N)C(=O)N=C(N)N
- pIC50 [1]: 7.70
- pIC50 [2]: 4.10
- pIC50 [3]: 5.44

SMILES: N=C(N)NC(=O)c1cnn(-c2cccc3ncccc23)c1C1CC1 [ZONIPORIDE]
- pIC50 [6]: < 3.30

Now from value to molecule:

- Cmax [4]: < 2.7 ng/mL
- AUC at 4 h [5]: < 4.4 ng·h/mL
SMILES: C/C(=C\c1cc(F)c(Oc2ccc(S(=O)(=O)NCCOCCOCCOCCNC(=O)[C@H](O)[C@@H](O)C(=O)NCCOCCOCCOCCNS(=O)(=O)c3ccc(Oc4c(F)cc(/C=C(\C)C(=O)N=C(N)N)cc4F)cc3)cc2)c(F)c1)C(=O)N=C(N)N

- Cmax [7]: < 3.5 ng/mL
- AUC at 4 h [8]: < 5.3 ng·h/mL
SMILES: CN1Cc2c(Cl)cc(Cl)cc2[C@H](c2ccc(S(=O)(=O)NCCOCCOCCOCCNC(=O)C(O)C(O)C(=O)NCCOCCOCCOCCNS(=O)(=O)c3ccc([C@@H]4CN(C)Cc5c(Cl)cc(Cl)cc54)cc3)cc2)C1 (single isomer, unassigned)

- AUC at 4 h [9]: < 2 ng·h/mL
- Cmax [10]: < 2 ng/mL
SMILES: CN1Cc2c(Cl)cc(Cl)cc2C(c2cccc(S(=O)(=O)NCCOCCOCCOCCNC(=O)Nc3ccc(NC(=O)NCCOCCOCCOCCNS(=O)(=O)c4cccc([C@@H]5CN(C)Cc6c(Cl)cc(Cl)cc65)c4)cc3)c2)C1 (mixture of isomers)
